Values after ≈ are worked out from the molar mass of the structure shown. Read-outs that look alike come from different tables or passages of the source.
Assays:
physchem [1] = assay type: physicochemical; details: for solubility at 10 days: thermodynamic from solid
Text: The buffer systems used for the pH-solubilization profile were 0.01 M sodium citrate/HCl with pH range 1.2–4.0, 0.01 M citrate-phosphate-borate/HCl with pH range 4.0–8.0, and 0.01M glycine/NaOH with pH range 8.0–12.0. In all the above mentioned buffers the ionic strength was maintained at 0.1M using sodium chloride. The effect of buffer species on the solubility of carbendazim at very low and high pH was not observed because the Ksp of each salt was not reached. Solubility at different pH was determined in the same manner as described below.
(§1) An excess amount of carbendazim was added to vials containing 2 ml of an aqueous solution of pH 2.00±0.15 and 7.00±0.15 at different concentrations (0, 1, 2.5, 5, and 10%) of cosolvents (EtOH, PG, PEG 400, and Glycerol), surfactants (Tween 20, Tween 80, sodium lauryl sulfate (SLS), and myristoyl camitine (MC)) and cyclodextrins (HPβCD and SBEβCD). In addition the cosolvents and cyclodextrins were studied at 20%. The sample vials were rotated at 20 rpm using an end-over-end mechanical rotator (Glas-Col Laboratory rotator, Terre Haute, Ind.) at ambient temperature for 10 days. Ten days was selected to ensure equilibrium because the strong crystal structure and high melting point (305° C.) (Budavari, S., 1996. The Merck Index, Twelfth ed. Merck & Co, New Jersey) of carbendazim contributes to a very slow dissolution rate. For solutions having pH greater than 9, the solubility was measured after 3 days rotation instead of 10 days because of the unstable nature of carbendazim in alkaline condition. The samples were filtered through a 0.45-μm filter and the pH at equilibrium was measured before performing HPLC analysis.
(§2) The HPLC assay used an Econosphere C8 column (150*4.6 mm, Alltech, Los Altos, Calif.) with a mobile phase composed of pure methanol. The flow rate was controlled at 1.0 ml/min (125 solvent Module, Beckman, Fullerton, Calif.) and the effluent was detected at 280 nm (168 detector, Beckman, Fullerton, Calif.). All experimental data are the average of duplicate values with an average error less than 3%.
The formation of a resonance-stabilized cation and anion is believed responsible for the high solubilities at low and high pH that are shown in FIG. 2. […] FIGS. 7–9 show the pH profile of three other drugs, obtained using analogous methods.

physchem [2] = assay type: physicochemical; details: thermodynamic from solid, Solubility of carbendazim
Procedure: as §1, with “Ten days was selected to ensure equilibrium because the strong crystal structure and high melting point (305° C.) (Budavari, S., 1996. The Merck Index, Twelfth ed. Merck & Co, New Jersey) of carbendazim contributes to a very slow dissolution rate.” left out
as §2, with “All experimental data are the average of duplicate values with an average error less than 3%.” left out

in vivo = details: mouse
Text: The bioavailability of carbendazim was studied in the mouse. An intravenous dose, a formulation of carbendazim in corn oil, and a formulation of carbendazim in phosphoric acid corresponding to the phosphoric acid concentration in Emetrol were each given to a mouse. The blood level on the graph is indicative of the amount of drug absorbed divided by the blood volume of the mouse.

[3] = listed for preferred weak bases, no method given; cited from earlier work

COC(=O)Nc1nc2ccccc2[nH]1 [carbendazim, methyl 2-benzimidazolecarbamate]
intrinsic solubility (physchem [1]; 10 days): 6.11 µg/mL
pKa (physchem [1]; acidic pKa): 10.6
pKa (physchem [1]; basic pKa): 4.5
solubility at 10 days (physchem [1]; pH 1, aqueous buffer): 16000 µg/mL (≈ 83.7 mM)
solubility at 10 days (physchem [1]; pH 2, aqueous buffer): 1600 µg/mL (≈ 8.37 mM)
solubility at 10 days (physchem [2]; pH 2, aqueous buffer): 1640 µg/mL (≈ 8.58 mM)
solubility at 10 days (physchem [2]; pH 7, aqueous buffer): 6 µg/mL (≈ 0.0314 mM)
Cmax (in vivo; iv, 6.4 ug): 15000 ng/mL
bioavailability (in vivo; iv, 6.4 ug): 100%

Cc1cc(NC(=O)NC(=O)c2ccccc2N(C)C)ccc1Oc1ncc(N)cn1
pKa [3]: ~5

Corn oil
% Bioavailability (in vivo; po, 132 mg): 4.8–6.4%
Cmax (in vivo; po, 132 mg): 15000 to 20000 ng/mL

— US7022712B2, “Solubilization of weak bases” (Arizona Board of Regents on Behalf of the University of …, priority 2002, dated 2006)
